This note sets out measurements from patent US9365597B2, “Mitochondria-targeted inhibitors of cytochrome c peroxidase for protection from apoptosis” (Brock University, priority 2011, dated 2016).

Data set [1] can be described thus: Compartmentalization of TPP-IOA in mouse embryonic cells and subcellular fractions (HPLC, ESI-MS). The data set is classed as in vitro ADME. As to the method: Mitochondrial fractions were isolated by differential centrifugation. Briefly, cells were suspended in mitochondria isolation buffer (pH 7.4; MIB) containing mannitol (210 mM), sucrose (70 mM), HEPES (10 mM), EDTA (1 mM) and protease inhibitor cocktail. Cells were lysed by Dounce homogenization. Unbroken cells, nuclei and debris were removed by 5 min centrifugation at 600×g at 4° C. Mitochondria, obtained by centrifugation at 10,000×g (10 min), were washed once with MIB.
Mouse embryonic cells (2×10^6) were seeded in 100 mm cell culture dishes and let attached overnight. Thereafter, the cells were incubated with TPP-IOA (10 μM) in PBS at 37° C. for 30 min, washed with PBS (2×5 mL), and collected by trypsinization. Mitochondria were isolated as described above. In mitochondria, TPP-IOA was analyzed by HPLC after precipitation of proteins with CH3CN (final concentration, 70%; incubation time, 15 min at 4° C.; centrifugation, 5 min at 10,000×g). TPP-IOA from cytosolic fractions was extracted by following the protocol of Folch et al.^37 and then re-dissolved in a minimal volume of methanol. […] Detection of TPP-IOA was performed with a SPD-M10A photodiode array detector (Shimadzu, Kyoto, Japan) following the specific UV spectrum of the triphenylphosphonium function (λmax=224, 264 and 274 nm; FIG. 4A, Inset). TPP-IOA was eluted as single peak with retention time of 4 min.

The test system of data set [2] is mouse lung endothelial cells. In words: Rotenone-induced apoptosis in mouse lung endothelial cells (PS externalization). Conditions: 2 μM rotenone, TPP-IOA 2.5, 5 μM, 48 h. The data set is classed as cell-based. As to the method:
Mouse embryonic cells (courtesy of Dr X. Wang, University of Texas, Dallas) were cultured in Dulbecco's Modified Eagle Medium (DMEM) supplemented with 15% fetal bovine serum (FBS), 25 mM Hepes, 50 mg per liter uridine, 110 mg per liter pyruvate, 2 mM glutamine, 1× nonessential amino acids, 50 μM β-mercaptoethanol, 0.5×10^6 Upper liter mouse leukaemia inhibitory factor, 100 Upper liter penicillin, and 100 mg per liter streptomycin in a humidified atmosphere of 5% CO2, 95% air at 37° C. Mouse lung endothelial cells were obtained as previously described^29. Briefly, lungs were flushed with Hank's balanced salt solution (HBSS) containing 10 U ml^−1 heparin, then homogenized and digested in type I collagenase using a gentle MACs dissociator (Miltenyi). […] At approximately passage 2, cells were incubated with fluorescently labelled diacetylated low-density lipoprotein (LDL) followed by fluorescence-activated cell sorting (FACS) for further purification. The enriched PECAM and diacetylated LDL population was sub-cultured on a collagen/gelatin matrix in 2% O2, 5% CO2, 93% nitrogen in a Coy Hypoxic Glove Box/Chamber in Opti-MEM (Gibco), 10% FBS, 2 mM glutamine, 0.2% retinal-derived growth factor (Vec Technologies), 10 U ml^−1 heparin, 0.1 mM non-essential amino acid supplement (Gibco) and 55 μM β-mercaptoethanol (Counted as passage 3). […]

The next data set concerns SH-SY5Y cells. In words: Oxygen-glucose deprivation (OGD) of SH-SY5Y cells, viability by WST-1 assay. The data set is classed as cell-based, human. As to conditions: for fold change in viability compared to control cells: 24 hours of recovery after 8 hour OGD, mean±SEM. As to the method: SH-SY5Y cells were harvested from 100 mm diameter culture plates once 70-80% confluence was reached, and were then seeded on 96-well plates at a density of 3.0×10^4 cells per well in normal growth media. The cells were then incubated overnight (approximately 16 hours) under normal growth conditions to allow for attachment to plates. During this time, DMEM (supplemented with 25 mM HEPES, 4 mM L-glutamine, and 584 mg/L […]) with no glucose or serum to be used for OGD was incubated on a culture plate in the 3% oxygen, 5% carbon dioxide, 37° C. incubator to reduce the oxygen levels within the media. In the following morning, this plate of media was placed inside of a custom-built anoxic chamber that was continuously pumped with 95% nitrogen-5% carbon dioxide gas mixture from Praxair Canada (St. Catharines, ON, Canada) to further reduce/eliminate the amount of oxygen present in the media. 0.2% oxygen level within the chamber was reached within approximately 10 minutes, and the plate of media was incubated for 30 minutes under these conditions. After this period, the growth media on the 96-well plates of SH-SY5Y cells was removed, and carefully replaced with the de-oxygenated DMEM containing no glucose or serum. The plates of cells were then incubated in the anoxia chamber at 0.2% oxygen for 8 hours, continuously pumped with the 95% nitrogen-5% carbon dioxide gas mixture. An oxygen sensor was kept inside of the chamber, and the 0.2% oxygen level was monitored and maintained by a Roxy-1 universal regulator/controller (Sable Systems Int., Las Vegas, Nev., USA). Throughout the duration of the media de-oxygenation and OGD, the anoxic chamber was kept inside of a 37° C. […]
After the 8 hour period of OGD, the glucose/serum-free DMEM was carefully removed from the wells, and replaced with normal growth media containing TPP-IOA. The cells were incubated at their normal growth conditions, and viability was assessed after 24 and 48 hours of recovery with the use of the WST-1 cell proliferation assay.
For measurements, premixed WST-1 cell proliferation reagent was added to the wells of cells (ratio of 1:10 with growth media) cultured on 96-well flat bottomed plates. […] The plate was then shaken thoroughly for 1 minute on a plate shaker, and then absorbance at 450 nm, with a reference wavelength of 650 nm, was measured using a microplate reader (BioTek, Winooski, Vt., USA).
For data analysis, the background control and reference wavelength absorbance readings were subtracted from the 450 nm reading for each sample. The average absorbance reading for the 0 μM TPP-IOA treatment was then set equal to 1, and all sample readings were divided by the mean absorbance of the 0 μM TPP-IOA treatment to obtain a measure of fold change in viability compared to the control.
In general terms: Formazan colour is commonly taken as a measure of viable cells.

Regarding `CCCCCCC(C/C=C\CCCCCCCC(=O)OCCC[P+](c1ccccc1)(c1ccccc1)c1ccccc1)n1ccnc1.[Br-]` (stereo not shown) [TPP-IOA], the “concentration of TPP-IOA in mitochondria” value in data set [1] (assuming mitochondria are ~15-25% of cell volume) was around 5000 µM. Further, the “subcellular distribution of TPP-IOA” value in data set [1] (mouse embryonic cells, 10 μM, 30 min) is “most of the TPP-IOA was present in mitochondria”. For the same compound, the “inhibition of rotenone-induced apoptosis” value in data set [2] is “effectively inhibited apoptosis”. In addition, the “fold change in viability compared to control cells” value with SH-SY5Y cells (2.5 μM, p=0.017) was determined as 1.192±0.058 fold; in the data set with SH-SY5Y cells (5 μM, p=0.0094) it was 1.356±0.074 fold; in the data set on SH-SY5Y cells (10 μM, non-significant p=0.0955) it was 1.179±0.038 fold. Further, in the data set on SH-SY5Y cells (48 hours of recovery after 8 hour OGD), the “viability after 48 hours of incubation” value is recorded as “no significant improvements in viability”.
